Where two headings read alike, the source gives them in different places.
Columns and labels:
individuals with NT1 = details: initial clinical studies; cited from earlier work
[1] = tested on: mouse models of narcolepsy type 1 / WT mice; details: cited from earlier work
[2] = amide bond; 12-membered ring; HATU/DIEA; DMF; 2.31 mM; 25.0 °C

COC(=O)N1CCC[C@H](NS(C)(=O)=O)[C@@H]1CO[C@H]1CC[C@@H](c2ccccc2)CC1 [TAK-925]
cataplexy (individuals with NT1): trends for decreasing cataplexy
wakefulness (individuals with NT1): substantial levels of increased wakefulness
wakefulness ([1]; subcutaneous administration, OX2R-knockout mice): not
wakefulness ([1]; subcutaneous administration, WT mice): modestly increased wakefulness

COc1ccc(-c2cccc(C(=O)N(C)C)c2)cc1S(=O)(=O)Nc1cccc(NCCNC(=O)c2ccccc2N(C)C)c1 [YNT-185]
sleep-onset REM periods and cataplexy-like events ([1]; intraperitoneally or ICV, NT1 mouse model): decrease sleep-onset REM periods and cataplexy-like events
wakefulness ([1]; intraperitoneally or ICV, wild type (WT) and orexin ligand-deficient mice): modestly increases wakefulness

N-((4^2S,4^3S)-5-oxo-8-oxa-4(2,1)-piperidina-1(1,2),2(1,3)-dibenzenacyclo-octaphane-4^3-yl)methanesulfonamide
ring closure, yield after HPLC [2]: 23.4%
